According to patent US3959256A:
In brackets after ≈: the same amount, converted by molar mass. Like-named read-outs stand apart in the source and are kept apart here.

How the values were obtained:
mice = assay: Acute toxicity in mice, intraperitoneal; conditions: 3,000 mg/kg intraperitoneally; one week after dosing; 3 mice per group
[1] = system: Diplococcus pneumoniae Type I; assay: Minimum inhibitory concentration, standard serial dilution method; type: cell-based; conditions: Streptococcus pneumoniae, read-out: Minimum Inhibitory Concentrations
[2] = system: Corynebacterium diphtheriae Type intermedius; assay: as above; type: cell-based; conditions: read-out: Minimum Inhibitory Concentrations
[3] = system: Bacillus subtilis PCI 219; assay: as above; type: cell-based; conditions: read-out: Minimum Inhibitory Concentrations
[4] = system: Bacillus anthracis No.119; assay: microbe, parasite or virus in culture; type: cell-based; conditions: NO.119, 24 h, read-out: Minimum Inhibitory Concentrations
[5] = system: Streptococcus faecalis ATCC 8043; assay: Minimum inhibitory concentration, standard serial dilution method; type: cell-based; conditions: Enterococcus faecalis, read-out: Minimum Inhibitory Concentrations
[6] = system: Staphylococcus albus 1200A; assay: as above; type: cell-based; conditions: read-out: Minimum Inhibitory Concentrations
[7] = system: Staphylococcus aureus Smith; assay: as above; type: cell-based; conditions: read-out: Minimum Inhibitory Concentrations
[8] = system: Bacillus subtilis ATCC 6633; assay: as above; type: cell-based; conditions: read-out: Minimum Inhibitory Concentrations
[9] = system: Staphylococcus aureus Terajima; assay: as above; type: cell-based; conditions: read-out: Minimum Inhibitory Concentrations
[10] = system: Streptococcus hemolyticus D-90; assay: as above; type: cell-based; conditions: Streptococcus pyogenes, D90, Brain Heart Infusion broth, 37°C, 24 hours, read-out: Minimum Inhibitory Concentrations
Experimental: (§1) The minimum inhibitory concentrations of these compounds to various microorganisms were determined according to a standard serial dilution method using Brain Heart Infusion broth as the incubation medium at 37°C, the estimation of the growth of the microorganisms being effected after 24 hours' incubation.

[11] = system: Staphylococcus aureus 209P; assay: as above; type: cell-based; conditions: Brain Heart Infusion broth, 37°C, 24 hours, read-out: Minimum Inhibitory Concentrations
Experimental: as §1

[12] = system: Diplococcus pneumoniae Type III; assay: as above; type: cell-based; conditions: Streptococcus pneumoniae, Brain Heart Infusion broth, 37°C, 24 hours, read-out: Minimum Inhibitory Concentrations
Experimental: as §1

Sarcina lutea = assay: as above; type: cell-based; conditions: Micrococcus luteus, read-out: Minimum Inhibitory Concentrations
[13] = system: Corynebacterium diphtheriae Type gravis; assay: as above; type: cell-based; conditions: read-out: Minimum Inhibitory Concentrations
[14] = system: Streptococcus pyogenes D-58; assay: as above; type: cell-based; conditions: read-out: Minimum Inhibitory Concentrations
[15] = system: Streptococcus hemolyticus Cook; assay: as above; type: cell-based; conditions: Streptococcus pyogenes, read-out: Minimum Inhibitory Concentrations
Staphylococcus aureus = assay: Curative effect in therapeutic treatment of Staphylococcus aureus infections in mice; conditions: oral, immediately after intraperitoneal inoculation, 7th day, 10 mice per group
[16] = Diplococcus pneumoniae Type I, Brain Heart Infusion broth, 37°C, 24 hours
[17] = Corynebacterium diphtheriae Type intermedius, Brain Heart Infusion broth, 37°C, 24 hours
[18] = PCI219, Bacillus subtilis PCI 219, Brain Heart Infusion broth, 37°C, 24 hours
[19] = ATCC6633, Bacillus subtilis ATCC 6633, Brain Heart Infusion broth, 37°C, 24 hours
[20] = Staphylococcus aureus Terajima, Brain Heart Infusion broth, 37°C, 24 hours
[21] = Sarcina lutea, Brain Heart Infusion broth, 37°C, 24 hours
[22] = Corynebacterium diphtheriae Type gravis, Brain Heart Infusion broth, 37°C, 24 hours
[23] = Streptococcus pyogenes, D58, 24 h
[24] = Streptococcus hemolyticus Cook, Brain Heart Infusion broth, 37°C, 24 hours
[25] = Corynebacterium diphtheriae, 24 h

Row | SMILES | Rate of the sacrificed mice (average) (mice) | MIC [1, 16] [µg/mL] | MIC [2, 17] [µg/mL] | MIC [3, 18] [µg/mL] | MIC [4] [µg/mL] | MIC ([5]; ATCC8043, 24 h) [µg/mL] | MIC ([6]; Staphylococcus, 1200A, 24 h) [µg/mL] | MIC ([7]; Staphylococcus aureus, 24 h) [µg/mL] | MIC [8, 19] [µg/mL] | MIC [9, 20] [µg/mL] | MIC [10] [µg/mL] | MIC [11] [µg/mL] | MIC [12] [µg/mL] | MIC (Sarcina lutea; [21]) [µg/mL] | MIC [13, 22] [µg/mL] | MIC [14, 23] [µg/mL] | MIC [15, 24] [µg/mL] | Rate of Surviving Mice (in percentage) (Staphylococcus aureus; 100 mg/kg) [percentage] | Rate of Surviving Mice (in percentage) (Staphylococcus aureus; 200 mg/kg) [percentage] | Rate of Surviving Mice (in percentage) (Staphylococcus aureus; 400 mg/kg) [percentage] | further results
1 | CCC(=O)OC1CC(=O)OC(C)CC=CC=CC(OC(C)=O)C(C)CC(CC=O)C(OC2OC(C)C(OC3CC(C)(OCOC(C)=O)C(OC(=O)CC)C(C)O3)C(N(C)C)C2O)C1OC (stereo not shown) [9-O-acetyl-3"-O-acetoxymethyl-SF-837, 9-O-acetyl-3"-O-acetoxymethyl-SF-837 substance] | 0/3 | 0.19 (≈ 0.205 µM) | 0.19 (≈ 0.205 µM) | 0.78 (≈ 0.84 µM) | 1.56 (≈ 1.68 µM) | 1.56 (≈ 1.68 µM) | 1.56 (≈ 1.68 µM) | 1.56 (≈ 1.68 µM) | 0.78 (≈ 0.84 µM) | 3.13 (≈ 3.37 µM) | 1.56 (≈ 1.68 µM) | 1.56 (≈ 1.68 µM) | 1.56 (≈ 1.68 µM) | 0.19 (≈ 0.205 µM) | 0.19 (≈ 0.205 µM) | 1.56 (≈ 1.68 µM) | 0.19 (≈ 0.205 µM) | – | – | – | –
2 | CCC(=O)OCOC1(C)CC(OC2C(C)OC(OC3C(CC=O)CC(C)C(OC(C)=O)C=CC=CCC(C)OC(=O)CC(OC(=O)CC)C3OC)C(O)C2N(C)C)OC(C)C1OC(=O)CC (stereo not shown) [9-O-acetyl-3"-O-propionyloxymethyl-SF-837 substance] | 0/3 | 0.19 (≈ 0.202 µM) | 0.19 (≈ 0.202 µM) | 0.39 (≈ 0.414 µM) | 1.56 (≈ 1.66 µM) | 1.56 (≈ 1.66 µM) | 1.56 (≈ 1.66 µM) | 1.56 (≈ 1.66 µM) | 0.78 (≈ 0.828 µM) | 3.13 (≈ 3.32 µM) | 1.56 (≈ 1.66 µM) | 1.56 (≈ 1.66 µM) | 1.56 (≈ 1.66 µM) | 0.19 (≈ 0.202 µM) | 0.19 (≈ 0.202 µM) | 1.56 (≈ 1.66 µM) | 0.19 (≈ 0.202 µM) | 67 | 100 | 100 | –
3 | CCC(=O)OC1C=CC=CCC(C)OC(=O)CC(OC(=O)CC)C(OC)C(OC2OC(C)C(OC3CC(C)(OCOC(C)=O)C(OC(=O)CC)C(C)O3)C(N(C)C)C2O)C(CC=O)CC1C (stereo not shown) [9-O-propionyl-3"-O-acetoxymethyl-SF-837, 9-O-propionyl-3"-O-acetoxymethyl-SF-837 substance] | 0/3 | 0.19 (≈ 0.202 µM) | 0.19 (≈ 0.202 µM) | 0.78 (≈ 0.828 µM) | 1.56 (≈ 1.66 µM) | 1.56 (≈ 1.66 µM) | 1.56 (≈ 1.66 µM) | – | 0.78 (≈ 0.828 µM) | 3.13 (≈ 3.32 µM) | 1.56 (≈ 1.66 µM) | 1.56 (≈ 1.66 µM) | 1.56 (≈ 1.66 µM) | 0.19 (≈ 0.202 µM) | 0.19 (≈ 0.202 µM) | – | 0.19 (≈ 0.202 µM) | 33 | 56 | 100 | MIC ([7]; Staphylococcus aureus Smith, Brain Heart Infusion broth, 37°C, 24 hours): 3.13 µg/mL (≈ 3.32 µM); MIC ([14]; D58, Streptococcus pyogenes D-58, Brain Heart Infusion broth, 37°C, 24 hours): 3.13 µg/mL (≈ 3.32 µM)
4 | CCC(=O)OCOC1(C)CC(OC2C(C)OC(OC3C(CC=O)CC(C)C(OC(=O)CC)C=CC=CCC(C)OC(=O)CC(OC(=O)CC)C3OC)C(O)C2N(C)C)OC(C)C1OC(=O)CC (stereo not shown) [9-O-propionyl-3"-O-propionyloxymethyl-SF-837 substance] | 0/3 | 0.19 (≈ 0.199 µM) | 0.19 (≈ 0.199 µM) | 0.78 (≈ 0.816 µM) | 1.56 (≈ 1.63 µM) | – | – | 1.56 (≈ 1.63 µM) | 0.78 (≈ 0.816 µM) | 3.13 (≈ 3.27 µM) | 1.56 (≈ 1.63 µM) | 1.56 (≈ 1.63 µM) | 1.56 (≈ 1.63 µM) | 0.19 (≈ 0.199 µM) | 0.19 (≈ 0.199 µM) | 1.56 (≈ 1.63 µM) | – | 33 | 56 | 100 | MIC ([5]; ATCC8043, Streptococcus faecalis ATCC 8043, Brain Heart Infusion broth, 37°C, 24 hours): 3.13 µg/mL (≈ 3.27 µM); MIC ([6]; Staphylococcus albus 1200A, Brain Heart Infusion broth, 37°C, 24 hours): 3.13 µg/mL (≈ 3.27 µM); MIC ([15]; 24 h): 1.56 µg/mL (≈ 1.63 µM)
5 | CCC(=O)OC1CC(=O)OC(C)CC=CC=CC(O)C(C)CC(CC=O)C(OC2OC(C)C(OC3CC(C)(O)C(OC(=O)CC)C(C)O3)C(N(C)C)C2O)C1OC (stereo not shown) [SF-837 (the free base), reference compound] | 3/3 | – | – | – | 0.78 (≈ 0.958 µM) | 1.56 (≈ 1.92 µM) | 0.78 (≈ 0.958 µM) | 0.19 (≈ 0.233 µM) | – | – | 1.56 (≈ 1.92 µM) | 0.78 (≈ 0.958 µM) | 0.04 (≈ 0.0491 µM) | – | – | 0.09 (≈ 0.111 µM) | – | 0 | 45 | 67 | MIC ([1]; 24 h): 0.04 µg/mL (≈ 0.0491 µM); MIC [2, 25]: 0.19 µg/mL (≈ 0.233 µM); MIC ([3]; Bacillus subtilis, PCI219, 24 h): 0.78 µg/mL (≈ 0.958 µM); MIC ([8]; Bacillus subtilis, ATCC6633, 24 h): 1.56 µg/mL (≈ 1.92 µM); MIC ([9]; Staphylococcus aureus, 24 h): 1.56 µg/mL (≈ 1.92 µM); MIC (Sarcina lutea; 24 h): 0.09 µg/mL (≈ 0.111 µM); MIC [13, 25]: 0.19 µg/mL (≈ 0.233 µM); MIC ([15]; 24 h): 0.09 µg/mL (≈ 0.111 µM)
